From ChEMBL document CHEMBL4145625 (J Med Chem, 2018)

Legend:
[1] = in vivo; conditions: ICR, mouse, plasma, po, 30 mg/kg
[2] = molecular target: T1, Cytochrome P450 1A2 (Homo sapiens, UniProt P05177)
T1 sequence (P05177 whole entry): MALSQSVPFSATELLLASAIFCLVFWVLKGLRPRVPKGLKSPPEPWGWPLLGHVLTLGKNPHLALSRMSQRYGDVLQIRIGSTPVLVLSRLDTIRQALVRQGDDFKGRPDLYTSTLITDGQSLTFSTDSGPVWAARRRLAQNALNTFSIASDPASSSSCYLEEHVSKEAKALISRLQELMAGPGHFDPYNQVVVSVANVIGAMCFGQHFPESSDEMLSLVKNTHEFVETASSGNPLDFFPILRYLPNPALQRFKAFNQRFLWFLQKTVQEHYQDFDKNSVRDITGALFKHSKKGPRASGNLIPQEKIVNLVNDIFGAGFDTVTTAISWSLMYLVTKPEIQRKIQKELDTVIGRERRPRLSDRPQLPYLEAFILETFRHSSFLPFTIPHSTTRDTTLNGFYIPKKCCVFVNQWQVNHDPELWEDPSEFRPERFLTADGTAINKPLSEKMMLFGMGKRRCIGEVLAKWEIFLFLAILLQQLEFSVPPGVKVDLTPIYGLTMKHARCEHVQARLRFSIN
Description: Inhibition of CYP1A2 in human liver microsomes assessed as reduction in acetaminophen formation using phenacetin as substrate after 10 to 20 mins in presence of NADPH by LC-MS/MS analysis

[3] = in vivo; conditions: ICR, mouse, plasma, po, 30 mg/kg; remark: listed apart in the source
[4] = tested on: U-251; assay: cells; type: functional, cell-based; conditions: Homo sapiens, U-251, 96 h
Description: Cytotoxicity against human U251 cells after 96 hrs by MTT assay

[5] = in vivo; conditions: ICR, mouse, plasma, iv, 3 mg/kg
[6] = tested on: SH-SY5Y; assay: cells; type: functional, cell-based; conditions: Homo sapiens, 96 h
Description: Cytotoxicity against human SH-SY5Y cells after 96 hrs by MTT assay

[7] = in vivo; conditions: ICR, mouse, plasma, po, 30 mg/kg; remark: listed apart in the source
[8] = molecular target: Cytochrome P450 2D6 (Homo sapiens, UniProt P10635)
Description: Inhibition of CYP2D6 in human liver microsomes assessed as reduction in dextrophan formation using detromethorphann as substrate after 10 to 20 mins in presence of NADPH by LC-MS/MS analysis

[9] = in vivo; conditions: ICR, mouse, plasma, iv, 3 mg/kg; remark: listed apart in the source
[10] = molecular target: Phosphatidylinositol 4,5-bisphosphate 3-kinase catalytic subunit beta isoform (Homo sapiens, UniProt P42338); assay: Inhibition of PI3Kbeta (unknown origin) using PIP2 as substrate by ADP-Glo assay
Sequence of Phosphatidylinositol 4,5-bisphosphate 3-kinase catalytic subunit beta isoform (P42338 whole entry, canonical isoform): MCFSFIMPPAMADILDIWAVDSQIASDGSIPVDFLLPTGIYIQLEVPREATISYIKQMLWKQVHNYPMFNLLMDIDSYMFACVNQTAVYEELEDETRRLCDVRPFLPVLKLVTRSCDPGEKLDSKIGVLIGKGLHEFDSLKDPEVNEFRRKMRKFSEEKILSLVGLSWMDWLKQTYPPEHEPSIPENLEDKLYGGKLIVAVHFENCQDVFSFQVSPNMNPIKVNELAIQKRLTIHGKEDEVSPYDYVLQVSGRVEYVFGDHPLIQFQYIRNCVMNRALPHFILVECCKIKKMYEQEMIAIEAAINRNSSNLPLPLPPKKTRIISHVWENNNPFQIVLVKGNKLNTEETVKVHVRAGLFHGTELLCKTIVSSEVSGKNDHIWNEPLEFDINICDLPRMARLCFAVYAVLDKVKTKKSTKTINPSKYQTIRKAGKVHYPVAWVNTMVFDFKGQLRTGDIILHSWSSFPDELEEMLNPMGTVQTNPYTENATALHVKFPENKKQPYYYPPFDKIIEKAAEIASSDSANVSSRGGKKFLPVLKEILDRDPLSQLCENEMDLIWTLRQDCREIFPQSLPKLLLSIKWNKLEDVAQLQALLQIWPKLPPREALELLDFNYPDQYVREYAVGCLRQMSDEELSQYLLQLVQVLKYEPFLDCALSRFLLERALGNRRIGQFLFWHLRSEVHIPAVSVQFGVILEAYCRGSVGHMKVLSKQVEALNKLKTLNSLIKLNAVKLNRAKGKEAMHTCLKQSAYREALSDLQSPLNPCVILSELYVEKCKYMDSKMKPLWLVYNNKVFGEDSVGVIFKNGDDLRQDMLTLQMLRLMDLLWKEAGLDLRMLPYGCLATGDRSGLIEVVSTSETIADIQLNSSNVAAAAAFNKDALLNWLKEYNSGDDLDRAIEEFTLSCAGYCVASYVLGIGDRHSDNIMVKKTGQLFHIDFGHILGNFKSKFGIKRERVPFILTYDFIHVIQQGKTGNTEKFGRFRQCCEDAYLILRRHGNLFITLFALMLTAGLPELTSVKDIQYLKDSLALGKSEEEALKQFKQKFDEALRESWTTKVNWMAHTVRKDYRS

[11] = in vivo; conditions: ICR, mouse, plasma, iv, 3 mg/kg; remark: listed apart in the source
[12] = tested on: T98G; assay: cells; type: functional, cell-based; conditions: Homo sapiens, 96 h
Description: Cytotoxicity against human T98G cells after 96 hrs by MTT assay

[13] = tested on: PC-3; assay: cells; type: functional, cell-based; conditions: Homo sapiens, PC-3, 96 h
Description: Cytotoxicity against human PC3 cells after 96 hrs by MTT assay

[14] = in vivo; conditions: ICR, mouse, plasma, po, 30 mg/kg; remark: listed apart in the source
Description: Half life in ICR mouse plasma at 30 mg/kg, po by LC/MS/MS analysis

[15] = in vivo; conditions: ICR, mouse, po
Description: Toxicity in po dosed ICR mouse administered as single dose via oral gavage measured after 14 days

[16] = molecular target: Cytochrome P450 2E1 (Homo sapiens, UniProt P05181)
Description: Inhibition of CYP2E1 in human liver microsomes assessed as reduction in 6-Hydroxychlorzoxazone formation using chlorzoxazone as substrate after 10 to 20 mins in presence of NADPH by LC-MS/MS analysis

[17] = molecular target: Cytochrome P450 2C19 (Homo sapiens, UniProt P33261)
Sequence of Cytochrome P450 2C19 (P33261 whole entry, canonical isoform): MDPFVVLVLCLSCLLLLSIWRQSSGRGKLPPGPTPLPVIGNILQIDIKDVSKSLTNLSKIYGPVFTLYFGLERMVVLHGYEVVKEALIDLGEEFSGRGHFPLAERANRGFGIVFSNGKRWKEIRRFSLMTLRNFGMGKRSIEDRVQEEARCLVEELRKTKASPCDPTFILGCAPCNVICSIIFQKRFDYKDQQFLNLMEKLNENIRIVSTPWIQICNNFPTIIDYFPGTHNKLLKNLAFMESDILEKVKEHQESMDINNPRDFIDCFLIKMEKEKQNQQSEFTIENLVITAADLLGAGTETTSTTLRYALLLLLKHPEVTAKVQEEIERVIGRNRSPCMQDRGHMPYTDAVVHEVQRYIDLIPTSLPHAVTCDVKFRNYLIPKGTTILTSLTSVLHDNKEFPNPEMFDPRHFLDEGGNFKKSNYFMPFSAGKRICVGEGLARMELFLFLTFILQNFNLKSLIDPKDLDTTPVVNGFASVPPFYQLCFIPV
Description: Inhibition of CYP2C19 in human liver microsomes assessed as reduction in 4-Hydroxymephenytoinn formation using mephenytoin as substrate after 10 to 20 mins in presence of NADPH by LC-MS/MS analysis

[18] = molecular target: Phosphatidylinositol 4,5-bisphosphate 3-kinase catalytic subunit alpha isoform (Homo sapiens, UniProt P42336); assay: Inhibition of PI3Kalpha (unknown origin) using PIP2 as substrate by Kinase-Glo assay
[19] = in vivo; conditions: ICR, mouse, plasma, iv, 3 mg/kg; remark: listed apart in the source
[20] = molecular target: Serine/threonine-protein kinase mTOR (Homo sapiens, UniProt P42345); assay: Inhibition of mTOR (unknown origin) using ULight-4E-BP1 peptide as substrate after 30 mins by Lance Ultra assay
[21] = in vivo; conditions: ICR, mouse, plasma, iv, 3 mg/kg; remark: listed apart in the source
Description: Half life in ICR mouse plasma at 3 mg/kg, iv by LC/MS/MS analysis

[22] = molecular target: RAC-alpha serine/threonine-protein kinase (Homo sapiens, UniProt P31749); assay: Inhibition of AKT1 (unknown origin) using FAM-labeled peptide as substrate by mobility shift assay
Sequence of RAC-alpha serine/threonine-protein kinase (P31749 whole entry): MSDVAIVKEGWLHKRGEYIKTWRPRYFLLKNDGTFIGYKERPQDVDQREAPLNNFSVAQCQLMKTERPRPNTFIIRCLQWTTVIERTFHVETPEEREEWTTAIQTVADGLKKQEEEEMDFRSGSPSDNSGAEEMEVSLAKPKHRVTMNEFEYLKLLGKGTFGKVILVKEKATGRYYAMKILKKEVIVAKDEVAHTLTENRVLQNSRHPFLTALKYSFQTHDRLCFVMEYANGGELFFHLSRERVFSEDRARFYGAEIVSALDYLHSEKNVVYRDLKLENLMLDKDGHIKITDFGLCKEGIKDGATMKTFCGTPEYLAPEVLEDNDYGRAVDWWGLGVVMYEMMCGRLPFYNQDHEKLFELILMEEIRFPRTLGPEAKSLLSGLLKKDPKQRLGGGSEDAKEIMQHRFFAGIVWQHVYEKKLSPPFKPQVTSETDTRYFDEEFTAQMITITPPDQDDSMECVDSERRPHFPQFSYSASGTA

[23] = tested on: HGC-27; assay: cells; type: functional, cell-based; conditions: Homo sapiens, HGC-27, 96 h
Description: Cytotoxicity against human HGC27 cells after 96 hrs by MTT assay

[24] = tested on: MDA-MB-231; assay: cells; type: functional, cell-based; conditions: Homo sapiens, MDA-MB-231, 96 h
Description: Cytotoxicity against human MDA-MB-231 cells after 96 hrs by MTT assay

[25] = tested on: A549; assay: cells; type: functional, cell-based; conditions: Homo sapiens, A549, 96 h
Description: Cytotoxicity against human A549 cells after 96 hrs by MTT assay

[26] = molecular target: Phosphatidylinositol 4,5-bisphosphate 3-kinase catalytic subunit gamma isoform (Homo sapiens, UniProt P48736); assay: Inhibition of PI3Kgamma (unknown origin) using PIP2 as substrate by ADP-Glo assay
Sequence of Phosphatidylinositol 4,5-bisphosphate 3-kinase catalytic subunit gamma isoform (P48736 whole entry, canonical isoform): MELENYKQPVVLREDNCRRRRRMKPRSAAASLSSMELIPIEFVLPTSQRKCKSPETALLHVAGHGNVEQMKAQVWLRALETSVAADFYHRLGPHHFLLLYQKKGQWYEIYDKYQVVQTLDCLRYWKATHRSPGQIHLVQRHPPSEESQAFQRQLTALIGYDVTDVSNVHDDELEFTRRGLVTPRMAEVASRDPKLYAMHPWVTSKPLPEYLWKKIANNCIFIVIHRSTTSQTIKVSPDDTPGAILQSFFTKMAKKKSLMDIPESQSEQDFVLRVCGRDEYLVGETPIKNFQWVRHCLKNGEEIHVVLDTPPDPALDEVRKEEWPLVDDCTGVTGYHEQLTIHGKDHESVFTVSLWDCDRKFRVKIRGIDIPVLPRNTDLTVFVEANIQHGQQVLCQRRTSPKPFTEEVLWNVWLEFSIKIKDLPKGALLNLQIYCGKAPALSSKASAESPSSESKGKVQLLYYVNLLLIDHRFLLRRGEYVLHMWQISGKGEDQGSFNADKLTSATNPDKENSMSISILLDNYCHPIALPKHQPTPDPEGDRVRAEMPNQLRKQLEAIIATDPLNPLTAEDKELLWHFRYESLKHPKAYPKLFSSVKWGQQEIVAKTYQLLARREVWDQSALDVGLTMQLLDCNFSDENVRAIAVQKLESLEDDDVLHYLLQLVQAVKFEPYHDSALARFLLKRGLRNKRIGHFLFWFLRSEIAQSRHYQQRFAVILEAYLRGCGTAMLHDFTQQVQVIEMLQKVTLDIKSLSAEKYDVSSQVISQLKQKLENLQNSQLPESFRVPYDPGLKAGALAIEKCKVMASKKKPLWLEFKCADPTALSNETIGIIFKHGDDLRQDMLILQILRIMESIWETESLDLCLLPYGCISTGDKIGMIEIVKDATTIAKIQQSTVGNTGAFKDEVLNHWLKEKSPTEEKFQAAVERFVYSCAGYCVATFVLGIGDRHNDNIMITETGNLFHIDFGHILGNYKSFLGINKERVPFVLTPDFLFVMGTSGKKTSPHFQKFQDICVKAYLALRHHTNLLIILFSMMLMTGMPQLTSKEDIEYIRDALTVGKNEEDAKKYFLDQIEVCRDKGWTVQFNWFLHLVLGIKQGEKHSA

[27] = molecular target: Cytochrome P450 3A4 (Homo sapiens, UniProt P08684)
Sequence of Cytochrome P450 3A4 (P08684 whole entry): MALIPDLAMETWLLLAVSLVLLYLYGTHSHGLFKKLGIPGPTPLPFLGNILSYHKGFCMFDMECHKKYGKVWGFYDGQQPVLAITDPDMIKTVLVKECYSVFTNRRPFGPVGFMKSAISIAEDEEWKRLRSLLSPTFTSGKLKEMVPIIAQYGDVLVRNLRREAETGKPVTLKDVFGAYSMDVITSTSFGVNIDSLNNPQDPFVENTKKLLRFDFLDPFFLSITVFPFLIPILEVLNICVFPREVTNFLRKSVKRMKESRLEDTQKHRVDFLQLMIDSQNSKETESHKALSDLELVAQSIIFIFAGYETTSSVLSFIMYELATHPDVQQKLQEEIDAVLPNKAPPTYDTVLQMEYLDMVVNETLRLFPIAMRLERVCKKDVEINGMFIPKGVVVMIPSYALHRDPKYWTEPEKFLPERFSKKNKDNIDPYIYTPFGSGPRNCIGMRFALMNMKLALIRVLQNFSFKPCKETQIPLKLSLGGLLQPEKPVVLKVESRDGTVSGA
Description: Inhibition of CYP3A4 in human liver microsomes assessed as reduction in 1-Hydroxymidazolam formation using midazolam as substrate after 10 to 20 mins in presence of NADPH by LC-MS/MS analysis

[28] = in vivo; conditions: ICR, mouse, plasma, iv, 3 mg/kg; remark: listed apart in the source
Description: Volume of distribution at steady state in ICR mouse plasma at 3 mg/kg, iv by LC/MS/MS analysis

[29] = molecular target: Voltage-gated inwardly rectifying potassium channel KCNH2 (Homo sapiens, UniProt Q12809)
Sequence of Voltage-gated inwardly rectifying potassium channel KCNH2 (Q12809 whole entry): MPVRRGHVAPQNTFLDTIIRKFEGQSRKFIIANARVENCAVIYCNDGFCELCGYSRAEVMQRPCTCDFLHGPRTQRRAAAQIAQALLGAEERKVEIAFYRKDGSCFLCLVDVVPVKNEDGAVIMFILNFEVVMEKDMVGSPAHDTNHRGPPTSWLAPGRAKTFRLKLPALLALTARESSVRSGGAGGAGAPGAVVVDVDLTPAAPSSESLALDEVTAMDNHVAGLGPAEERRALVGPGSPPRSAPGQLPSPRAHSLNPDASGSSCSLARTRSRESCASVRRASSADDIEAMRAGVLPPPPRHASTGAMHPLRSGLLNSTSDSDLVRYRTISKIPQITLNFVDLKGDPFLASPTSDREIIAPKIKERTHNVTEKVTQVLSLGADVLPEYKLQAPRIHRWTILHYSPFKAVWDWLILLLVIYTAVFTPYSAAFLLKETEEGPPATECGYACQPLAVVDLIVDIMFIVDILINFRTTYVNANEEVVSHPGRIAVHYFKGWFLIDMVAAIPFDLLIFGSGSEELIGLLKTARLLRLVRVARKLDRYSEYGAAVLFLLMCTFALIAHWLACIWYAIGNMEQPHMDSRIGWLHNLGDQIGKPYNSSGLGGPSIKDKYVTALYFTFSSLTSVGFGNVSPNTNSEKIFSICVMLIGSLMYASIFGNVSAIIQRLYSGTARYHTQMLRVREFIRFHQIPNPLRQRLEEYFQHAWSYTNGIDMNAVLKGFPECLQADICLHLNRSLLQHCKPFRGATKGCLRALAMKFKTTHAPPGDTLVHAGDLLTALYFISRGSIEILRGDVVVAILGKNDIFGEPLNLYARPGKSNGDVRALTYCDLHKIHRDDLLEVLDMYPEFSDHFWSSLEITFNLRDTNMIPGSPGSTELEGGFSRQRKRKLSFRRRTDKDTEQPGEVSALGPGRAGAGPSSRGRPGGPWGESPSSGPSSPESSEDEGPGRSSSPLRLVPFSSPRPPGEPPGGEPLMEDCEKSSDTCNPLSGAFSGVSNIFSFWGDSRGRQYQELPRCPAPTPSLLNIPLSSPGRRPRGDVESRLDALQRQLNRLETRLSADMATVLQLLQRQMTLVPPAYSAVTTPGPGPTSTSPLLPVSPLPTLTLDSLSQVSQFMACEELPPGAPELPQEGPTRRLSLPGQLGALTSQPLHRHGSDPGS
Description: Inhibition of human ERG expressed in CHO cell membranes by patch clamp method

[30] = molecular target: Cytochrome P450 2C9 (Homo sapiens, UniProt P11712)
Description: Inhibition of CYP2C9 in human liver microsomes assessed as reduction in 4-Hydroxydiclofenac formation using diclofenac as substrate after 10 to 20 mins in presence of NADPH by LC-MS/MS analysis

[31] = in vivo; conditions: ICR, mouse, plasma, iv, 3 mg/kg; remark: listed apart in the source
Description: Clearance in ICR mouse plasma at 3 mg/kg, iv by LC/MS/MS analysis

SMILES | bioavailability [1] | IC50 [2] | AUC(0-t) [3] | IC50 [4] | AUC(0-inf) [5] | IC50 [6] | Cmax [7] | IC50 [8] | Tmax [9] | IC50 [10] | Cmax [11] | IC50 [12] | IC50 [13] | half-life [14] | MTD at 336 h [15] | IC50 [16] | IC50 [17] | IC50 [18] | AUC(0-t) [19] | IC50 [20] | further results
CNc1nc(C)c2cc(-c3cnc(OC)c(NS(=O)(=O)c4ccc(F)cc4F)c3)cc(OC3CCOCC3)c2n1 | 44.4% | > 10000 nM | 15500 ng·h/mL | 700 nM | 3500 ng·h/mL | 510 nM | 12800 ng/mL | > 10000 nM | 3 min | 1.2 nM | 7720 ng/mL | 390 nM | 380 nM | 255 min | > 40 mg/kg | > 10000 nM | > 10000 nM | 1.4 nM | 3480 ng·h/mL | 43 nM | half-life [21]: 37.2 min; IC50 [22]: > 10000 nM; IC50 [23]: 16 nM; IC50 [24]: 260 nM; IC50 [25]: 110 nM; IC50 [26]: 1.7 nM; IC50 [27]: > 10000 nM; Vd [28]: 0.763 L/kg; IC50 [29]: > 10000 nM; IC50 [30]: > 10000 nM; clearance [31]: 14.3 mL/min/kg
CNc1nc(C)c2cc(-c3cnc(OC)c(NS(=O)(=O)c4ccc(F)cc4F)c3)cc(O[C@@H]3CCOC3)c2n1 | 78.4% | > 10000 nM | 11400 ng·h/mL | 460 nM | 1460 ng·h/mL | 1300 nM | 5390 ng/mL | > 10000 nM | 1.8 min | 1.1 nM | 2620 ng/mL | 410 nM | 240 nM | 972 min | > 40 mg/kg | > 10000 nM | > 10000 nM | 0.96 nM | 1450 ng·h/mL | 56 nM | half-life [21]: 31.8 min; IC50 [22]: > 10000 nM; IC50 [23]: 27 nM; IC50 [24]: 480 nM; IC50 [25]: 120 nM; IC50 [26]: 0.93 nM; IC50 [27]: > 10000 nM; Vd [28]: 1.56 L/kg; IC50 [29]: > 10000 nM; IC50 [30]: > 10000 nM; clearance [31]: 34.5 mL/min/kg
COc1ncc(-c2cc(O[C@@H]3CCOC3)c3nc(N)nc(C)c3c2)cc1NS(=O)(=O)c1ccc(F)cc1F | 96.2% | > 10000 nM | 8690 ng·h/mL | 140 nM | 911 ng·h/mL | 950 nM | 8830 ng/mL | > 10000 nM | 1.8 min | 0.4 nM | 1580 ng/mL | 280 nM | 280 nM | 281 min | > 50 mg/kg | > 10000 nM | > 10000 nM | 1 nM | 904 ng·h/mL | 9.9 nM | half-life [21]: 32.4 min; IC50 [22]: > 10000 nM; IC50 [23]: 56 nM; IC50 [24]: 300 nM; IC50 [25]: 84 nM; IC50 [26]: 1.2 nM; IC50 [27]: > 10000 nM; Vd [28]: 2.57 L/kg; IC50 [29]: > 10000 nM; IC50 [30]: > 10000 nM; clearance [31]: 54.9 mL/min/kg
